# Assay results reported in patent US10132810B2, “Method for assessing and predicting efficacy of breast cancer treatment with a long-acting topoisomerase I inhibitor” (priority 2012, dated 2018).
# Where two headings read alike, the source gives them in different places.
# Key:
# serum CA27.29 = test system: serum CA27.29
# Procedure: Medical history was taken at screening and on day 1 of each cycle. Physical exam was performed and serum CA27.29, complete blood count with differential, and serum chemistry were analyzed at screening, on day 1 of each cycle, and at end of treatment. Coagulation parameters were analyzed at screening and on day 1 of each cycle. […] Patients were contacted approximately every 3 months after the end-of-treatment visit to assess progression (in the absence of progression on study), survival, receipt of subsequent anti-cancer therapy, and resolution of toxicity.
# Secondary endpoints were PFS, overall survival (OS), 6-month and 1-year survival, and safety. Exploratory endpoints included change from baseline in CA27.29, UGT1A1 and ABCC2 polymorphism for correlation with select toxicities.
# The analysis dataset utilized consisted of 45 patients having at least two CA27.29 measurements (pre- and post-first dose).
# Levels of CA27.29 were also evaluated for correlation with tumor size over the course of treatment.
# [1] = test system: patients with previously treated metastatic breast cancer; assay: Efficacy of two dosing schedules in patients with previously treated metastatic breast cancer (RECIST response, PFS, OS); format: in vivo, human
# Procedure: Seventy patients were enrolled in the trial (n=35 per arm). […] Patients received treatment until disease progression or unacceptable toxicity. The drug dosage was dose-reduced by 25 mg/m^2 for grade 3-4 hematologic toxicity, grade 3-4 diarrhea, and other grade 2-4 non-hematologic toxicities (other than alopecia, anorexia, asthenia, and untreated nausea/vomiting). […] Medical history was taken at screening and on day 1 of each cycle. […] Coagulation parameters were analyzed at screening and on day 1 of each cycle. […] Patients were contacted approximately every 3 months after the end-of-treatment visit to assess progression (in the absence of progression on study), survival, receipt of subsequent anti-cancer therapy, and resolution of toxicity. […] Exploratory endpoints included change from baseline in CA27.29, UGT1A1 and ABCC2 polymorphism for correlation with select toxicities. Three populations for analysis were defined: 1) intent-to-treat (ITT), 2) efficacy evaluable, and 3) safety. The ITT population was the primary population for all efficacy analyses and included all randomized patients. […] The safety population consisted of all patients who received at least one dose or partial dose of chemotherapeutic agent. Summary statistics were used for continuous variables, frequency counts and percentages were used for categorical variables. Ninety-five percent confidence interval were calculated for ORR using the Exact method. Time-to-event variables were analyzed using the Kaplan-Meier method.
substance,measurement,setting,value
Pentaerythritolyl-4-Arm-(PEG-1-Methylene-2 Oxo-Vinylamino Acetate linked-Irinotecan)-20K [4-arm-PEG-gly-irino-20K],decrease in serum CA27.29 levels over time,"serum CA27.29; 145 mg/m^2, both q14d and q21d regimens, FIGS. 1A and 1B",at least twenty five
same,median change in CA27.29,"serum CA27.29; RECIST PD, FIG. 5",increased
same,median of the maximum CA27.29 decline,"serum CA27.29; RECIST PR and CR, FIG. 5",> 50%
same,median decline in CA27.29,"serum CA27.29; RECIST SD < 6 months, FIG. 5",negligible
same,median of the maximum decline in CA27.29,"serum CA27.29; RECIST SD >= 6 months, FIG. 5",30%
same,Overall best CA27.29 response (50% or better decline in at least one observation from baseline),"serum CA27.29; Total, 16/45 patients",36% (16/45)
same,median PFS,serum CA27.29; patients with <25% reduction (n=4) or elevations (n=13) in CA27.29 by week 6,6 months
same,median PFS,serum CA27.29; patients with >=25% reduction in CA27.29 by week 6 (n=12),12 months
same,patients showing CA27.29 elevation from baseline,serum CA27.29; patients with RECIST PD (8/10),Eighty
same,patients manifesting declines in CA27.29,serum CA27.29; patients with RECIST SD >= 6 months (n=5),All patients
same,patients showing a decline in CA27.29,serum CA27.29; patients with SD < 6 months (6/11),55%
same,objective response rate (ORR),"[1]; 145 mg/m^2 iv, administered every 14 days or every 21 days",28.6%
same,Overall Survival (OS),[1]; Total (both schedules),10.3 months
same,Progression Free Survival (PFS),[1]; Total (both schedules),4.6 months
same,Overall Response Rate (ORR),"[1]; Total (both schedules), N = 66",29% (N = 66)
same,Overall Survival (OS),[1]; q21d schedule,13.1 months
same,Progression Free Survival (PFS),[1]; q21d schedule,5.3 months
